Reference: patent US10183914B2 (BAYER CROPSCIENCE AKTIENGESELLSCHAFT, priority 2014, dated 2019)
Where two headings read alike, the source gives them in different places.

Legend:
Lolium multiflorum [1] = experiment: Pre-emergence herbicidal effect; type: in vivo; conditions: 3 weeks
How it was run: (§1)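 Sow seeds in sandy loam; cover with soil; spray WP or EC formulation onto soil surface (600 to 800 L/ha water, 0.2% wetting agent); grow in greenhouse 3 weeks; rate damage visually, 0% like control, 100% plants dead.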

Polygonum convolvulus = experiment: Pre-emergence herbicidal effect; type: in vivo; conditions: 3 weeks
How it was run: as §1

Echinochloa crus-galli [2] = experiment: Pre-emergence herbicidal effect; type: in vivo; conditions: 3 weeks
How it was run: as §1

Veronica persica = experiment: Pre-emergence herbicidal effect; type: in vivo; conditions: 3 weeks
How it was run: as §1

Amaranthus retroflexus = experiment: Pre-emergence herbicidal effect; type: in vivo; conditions: 3 weeks
How it was run: as §1

Alopecurus myosuroides = experiment: Pre-emergence herbicidal effect; type: in vivo; conditions: 3 weeks
How it was run: as §1

Setaria viridis [3] = experiment: Pre-emergence herbicidal effect; type: in vivo; conditions: 3 weeks
How it was run: as §1

Stellaria media = experiment: Pre-emergence herbicidal effect; type: in vivo; conditions: 3 weeks
How it was run: as §1

Matricaria inodora = experiment: Pre-emergence herbicidal effect; type: in vivo; conditions: 3 weeks
How it was run: as §1

Viola tricolor = experiment: Pre-emergence herbicidal effect; type: in vivo; conditions: 3 weeks
How it was run: as §1

Ipomoea purpurea = experiment: Pre-emergence herbicidal effect; type: in vivo; conditions: 3 weeks
How it was run: as §1

[4] = logp (HCOOH), physicochemical characterization
Zea mays [5] = experiment: Pre-emergence herbicidal effect and crop plant compatibility; type: in vivo; conditions: 3 weeks
How it was run: as §1

[6] = test system: Triticum aestivum (spring); experiment: as above; type: in vivo; conditions: 3 weeks
How it was run: as §1

Avena fatua = experiment: Pre-emergence herbicidal effect; type: in vivo; conditions: 3 weeks
How it was run: as §1

Abutilon theophrasti = experiment: Pre-emergence herbicidal effect; type: in vivo; conditions: 3 weeks
How it was run: as §1

Zea mays [7] = experiment: Post-emergence herbicidal effect and crop plant compatibility; type: in vivo; conditions: visual scoring after about 3 weeks
How it was run: (§2)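 Test species, both weeds and crops, are raised in sandy loam and treated post-emergence at one leaf. Compounds in WP or EC form are applied with 0.2% wetting agent at 600 to 800 L/ha. Percent herbicidal action against untreated plants is judged by eye about 3 weeks on.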

[8] = test system: Triticum aestivum (spring); experiment: as above; type: in vivo; conditions: visual scoring after about 3 weeks
How it was run: as §2

Oryza sativa [9] = experiment: as above; type: in vivo; conditions: visual scoring after about 3 weeks
How it was run: as §2

Lolium multiflorum [10] = experiment: Post-emergence herbicidal effect; type: in vivo; conditions: 320 g/ha, visual scoring after about 3 weeks
Protocol: (§3) Seeds of monocotyledonous and dicotyledonous weed and crop plants are laid out in sandy loam in wood-fiber pots, covered with soil and cultivated in a greenhouse under good growth conditions. 2 to 3 weeks after sowing, the test plants are treated at the one-leaf stage. The compounds of the invention, formulated in the form of wettable powders (WP) or as emulsion concentrates (EC), are then sprayed onto the green parts of the plants as aqueous suspension or emulsion at a water application rate equating to 600 to 800 L/ha with addition of 0.2% wetting agent. After the trial plants have been left to stand in a greenhouse under optimal growth conditions for about 3 weeks, the efficacy of the formulations is scored visually in comparison to untreated controls (herbicidal action in percent (%): 100% efficacy=the plants have died, 0% efficacy=like control plants).

Echinochloa crus-galli [11] = experiment: Post-emergence herbicidal effect; type: in vivo; conditions: visual scoring after about 3 weeks
Protocol: as §3

Setaria viridis [12] = experiment: Post-emergence herbicidal effect; type: in vivo; conditions: scoring after about 3 weeks
Protocol: as §3

Cyperus esculentus = experiment: Pre-emergence herbicidal effect; type: in vivo; conditions: 3 weeks
How it was run: as §1

Oryza sativa [13] = experiment: Pre-emergence herbicidal effect and crop plant compatibility; type: in vivo; conditions: 3 weeks
How it was run: as §1

[14] = 320 g/ha (dose by row order of upper half)

SMILES	LOLMU herbicidal activity in percent (Lolium multiflorum [1]; 320 g/ha) [%]	POLCO herbicidal activity in percent (Polygonum convolvulus; 320 g/ha) [%]	ECHCG herbicidal activity in percent (Echinochloa crus-galli [2]; 320 g/ha) [%]	VERPE herbicidal activity in percent (Veronica persica; 80 g/ha) [%]	VERPE herbicidal activity in percent (Veronica persica; 320 g/ha) [%]	AMARE herbicidal activity in percent (Amaranthus retroflexus; 320 g/ha) [%]	ALOMY herbicidal activity in percent (Alopecurus myosuroides; 80 g/ha) [%]	ALOMY herbicidal activity in percent (Alopecurus myosuroides; 320 g/ha) [%]	SETVI herbicidal activity in percent (Setaria viridis [3]; 320 g/ha) [%]	STEME herbicidal activity in percent (Stellaria media; 80 g/ha) [%]	STEME herbicidal activity in percent (Stellaria media; 320 g/ha) [%]	MATIN herbicidal activity in percent (Matricaria inodora; 80 g/ha) [%]	MATIN herbicidal activity in percent (Matricaria inodora; 320 g/ha) [%]	VIOTR herbicidal activity in percent (Viola tricolor; 320 g/ha) [%]	PHBPU herbicidal activity in percent (Ipomoea purpurea; 320 g/ha) [%]	ZEAMX herbicidal activity in percent (Zea mays [5]; 80 g/ha) [%]	ZEAMX herbicidal activity in percent (Zea mays [5]; 320 g/ha) [%]	TRZAS herbicidal activity in percent ([6]; 80 g/ha) [%]	TRZAS herbicidal activity in percent ([6]; 320 g/ha) [%]	logp (HCOOH) [4]	other results
CC(=O)c1cnc(NC2CCOc3c(C)cccc32)nc1 (racemic) [1.7]	100	90	90	100	100	100	80	100	90	80	100	90	100	100	100	0	20	0	0		logp (HCOOH) ([4]; HCOOH): solid; m.p.: 167-168° C.; logp (HCOOH): 2.54; 1H-NMR (CDCl3, 400 MHZ, δ in
CC(=O)c1cnc(NC2CCOc3ccccc32)nc1C (stereo not drawn) [1.83, 1-[2-(3,4-Dihydro-2H-chromen-4-ylamino)-4-methylpyrimidin-5-yl]ethanone]																					LOLMU herbicidal activity in percent (Lolium multiflorum [1]; 1280 g/ha): 100%; POLCO herbicidal activity in percent (Polygonum convolvulus; 1280 g/ha): 100%; ECHCG herbicidal activity in percent (Echinochloa crus-galli [2]; 1280 g/ha): 100%; VERPE herbicidal activity in percent (Veronica persica; 1280 g/ha): 100%; AMARE herbicidal activity in percent (Amaranthus retroflexus; 1280 g/ha): 100%; ALOMY herbicidal activity in percent (Alopecurus myosuroides; 1280 g/ha): 100%; SETVI herbicidal activity in percent (Setaria viridis [3]; 1280 g/ha): 100%; AVEFA herbicidal activity in percent (Avena fatua; 1280 g/ha): 90%; STEME herbicidal activity in percent (Stellaria media; 1280 g/ha): 100%; ABUTH herbicidal activity in percent (Abutilon theophrasti; 1280 g/ha): 100%; MATIN herbicidal activity in percent (Matricaria inodora; 1280 g/ha): 100%; VIOTR herbicidal activity in percent (Viola tricolor; 1280 g/ha): 100%; PHBPU herbicidal activity in percent (Ipomoea purpurea; 1280 g/ha): 100%; chromatographic logP ([4]; HCOOH (formic acid)): 2.44
Cc1cccc2c1OCC[C@H]2Nc1ncc2c(n1)CCCC2=O [2.100]	100	90	100	100	100	100		80	100	100	100	100	100	100		0	10	0	10		post-emergence efficacy ZEAMX (Zea mays [7]; 80 g/ha): 10%; post-emergence efficacy ZEAMX (Zea mays [7]; 320 g/ha): 10%; post-emergence efficacy TRZAS ([8]; 80 g/ha): 10%; post-emergence efficacy TRZAS ([8]; 320 g/ha): 20%; post-emergence efficacy ORYSA (Oryza sativa [9]; 80 g/ha): 0%; post-emergence efficacy ORYSA (Oryza sativa [9]; 320 g/ha): 0%; post-emergence efficacy LOLMU (Lolium multiflorum [10]): 100%; post-emergence efficacy ECHCG (Echinochloa crus-galli [11]; 80 g/ha): 100%; post-emergence efficacy ECHCG (Echinochloa crus-galli [11]; 320 g/ha): 100%; post-emergence efficacy SETVI (Setaria viridis [12]; 80 g/ha (dose by row order of upper half)): 90%; post-emergence efficacy SETVI (Setaria viridis [12]; [14]): 90%; POLCO herbicidal activity in percent (Polygonum convolvulus; 80 g/ha): 90%; ECHCG herbicidal activity in percent (Echinochloa crus-galli [2]; 80 g/ha): 100%; AMARE herbicidal activity in percent (Amaranthus retroflexus; 80 g/ha): 100%; SETVI herbicidal activity in percent (Setaria viridis [3]; 80 g/ha): 100%; ABUTH herbicidal activity in percent (Abutilon theophrasti; 320 g/ha): 90%; VIOTR herbicidal activity in percent (Viola tricolor; 80 g/ha): 100%
O=C1CC(c2ccccc2F)Cc2nc(N[C@@H]3CCCc4ccccc43)ncc21 (stereo partly drawn) [2.93]																				oily; logp (HCOOH): 4.38; 1H-NMR (CDCl3, 400 MHZ, δ in ppm): 1.95 (m, 3H, 2H	VERPE herbicidal activity in percent (Veronica persica; 1280 g/ha): 100%; AMARE herbicidal activity in percent (Amaranthus retroflexus; 1280 g/ha): 80%; STEME herbicidal activity in percent (Stellaria media; 1280 g/ha): 100%; VIOTR herbicidal activity in percent (Viola tricolor; 1280 g/ha): 80%; PHBPU herbicidal activity in percent (Ipomoea purpurea; 1280 g/ha): 90%; CYPES herbicidal activity in percent (Cyperus esculentus; 1280 g/ha): 100%; ZEAMX herbicidal activity in percent (Zea mays [5]; 1280 g/ha): 0%; TRZAS herbicidal activity in percent ([6]; 1280 g/ha): 0%; ORYSA herbicidal activity in percent (Oryza sativa [13]; 1280 g/ha): 20%
O=C1CCCc2nc(NC3CCc4ccccc43)ncc21 (racemic) [2.91]	100	80	100		100	100		90	100		100		100	100	100		20			oily; logp (HCOOH): 2.62; 1H-NMR (CDCl3, 400 MHZ, δ in ppm): 1.25 (m, 1H, 1H	post-emergence efficacy ORYSA (Oryza sativa [9]; 320 g/ha): 0%; post-emergence efficacy LOLMU (Lolium multiflorum [10]): 100%; post-emergence efficacy ECHCG (Echinochloa crus-galli [11]; 320 g/ha): 100%; post-emergence efficacy SETVI (Setaria viridis [12]; [14]): 90%; AVEFA herbicidal activity in percent (Avena fatua; 320 g/ha): 80%; ABUTH herbicidal activity in percent (Abutilon theophrasti; 320 g/ha): 100%; ORYSA herbicidal activity in percent (Oryza sativa [13]; 320 g/ha): 20%
CC(=O)c1cnc(N[C@@H]2CCOc3ccccc32)nc1 [1.4]		100	90	100	100	100	100	100	90	90	100	100	100	100	100					oily; logp (HCOOH): 2.03; 1H-NMR (CDCL3, 400 MHZ, δ in ppm): 2.15 (m, 1H, 1H	POLCO herbicidal activity in percent (Polygonum convolvulus; 80 g/ha): 100%; AMARE herbicidal activity in percent (Amaranthus retroflexus; 80 g/ha): 100%; AVEFA herbicidal activity in percent (Avena fatua; 80 g/ha): 100%; AVEFA herbicidal activity in percent (Avena fatua; 320 g/ha): 100%; VIOTR herbicidal activity in percent (Viola tricolor; 80 g/ha): 100%; CYPES herbicidal activity in percent (Cyperus esculentus; 80 g/ha): 80%; CYPES herbicidal activity in percent (Cyperus esculentus; 320 g/ha): 100%
